# Assay results reported in patent US20060069123A1, “Substituted dipiperidine CCR2 antagonists” (priority 2004, published 2006).
# Read-outs that look alike come from different tables or passages of the source.
# Tests used:
# THP-1 cells [1] = assay: MCP-1 Induced Chemotaxis in THP-1 Cells; type: cell-based; conditions: THP-1 cells, MCP-1 0.01 μg/mL, 3 hours, read-out: Inhibition of MCP-1 Induced Chemotaxis IC50
# CCR2 = target: T1, CCR2 (Homo sapiens, UniProt P41597)
# T1 sequence (P41597 1-360 isoform P41597-2): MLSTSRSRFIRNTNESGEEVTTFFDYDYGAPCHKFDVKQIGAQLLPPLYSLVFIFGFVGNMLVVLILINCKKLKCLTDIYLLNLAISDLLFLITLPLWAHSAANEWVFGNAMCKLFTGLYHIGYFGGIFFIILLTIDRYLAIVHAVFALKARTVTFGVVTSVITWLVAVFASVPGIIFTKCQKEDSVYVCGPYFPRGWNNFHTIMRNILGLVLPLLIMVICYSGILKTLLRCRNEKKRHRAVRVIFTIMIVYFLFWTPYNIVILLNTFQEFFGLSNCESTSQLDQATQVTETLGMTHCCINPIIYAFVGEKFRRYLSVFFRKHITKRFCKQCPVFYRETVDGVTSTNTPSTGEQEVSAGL
# THP-1 cells [2] = conditions: for IC50: Homo sapiens
# [3] = THP-1, read-out: Inhibition of MCP-1 Induced Calcium Ion Influx IC50
SMILES,IC50 (THP-1 cells [1]; Homo sapiens) [nM],IC50 (CCR2) [nM],IC50 (THP-1 cells [2]; [3]) [nM],further results
"COc1ccc2[nH]cc(C3CCN(C(CO)C4CCN(C(=O)/C=C/c5cc(F)c(F)c(F)c5)CC4)CC3)c2c1 (stereo not drawn) [Cpd 166, (2E)-1-(4-{2-hydroxy-1-[4-(5-methoxy-1H-indol-3-yl)-piperidin-1-yl]-ethyl}-piperidin-1-yl)-3-(3,4,5-trifluoro-phenyl)-propenone]",30,6,8,–
"O=C(/C=C/c1ccc(Cl)c(Cl)c1)N1CCC(C(CO)N2CCC(c3c[nH]c4ccc(F)cc34)CC2)CC1 (stereo not drawn) [Cpd 168, (2E)-3-(3,4-dichloro-phenyl)-1-(4-{1-[4-(5-fluoro-1H-indol-3-yl)-piperidin-1-yl]-2-hydroxy-ethyl}-piperidin-1-yl)-propenone]",40,20,10,–
"O=C(/C=C/c1ccc(F)cc1)N1CCC(C(CO)N2CCC(c3c[nH]c4ccc(F)cc34)CC2)CC1 (stereo not drawn) [Cpd 169, (2E)-1-(4-{1-[4-(5-fluoro-1H-indol-3-yl)-piperidin-1-yl]-2-hydroxy-ethyl}-piperidin-1-yl)-3-(4-fluoro-phenyl)-propenone]",55,57,170,–
"O=C(/C=C/c1cc(F)c(F)c(F)c1)N1CCC(C(CO)N2CCC(c3c[nH]c4ccc(F)cc34)CC2)CC1 (stereo not drawn) [Cpd 170, (2E)-1-(4-{1-[4-(5-fluoro-1H-indol-3-yl)-piperidin-1-yl]-2-hydroxy-ethyl}-piperidin-1-yl)-3-(3,4,5-trifluoro-phenyl)-propenone]",–,–,–,"IC50 (THP-1 cells [1]; Homo sapiens, THP-1, 3 h): 9 nM; IC50 (CCR2; Inhibition of MCP-1 Binding IC50, 125I labeled MCP-1 binding to CCR2, THP-1 cells): 40 nM; IC50 (THP-1 cells [2]; THP-1, read-out: Inhibition of MCP-1 Induced Calcium Ion Influx IC50, THP-1 cells, 0.2 μM MCP-1, FLIPR): 10 nM"
"O=C(/C=C/c1cc(F)cc(F)c1)N1CCC(C(CO)N2CCC(c3c[nH]c4ccc(F)cc34)CC2)CC1 (stereo not drawn) [Cpd 171, (2E)-3-(3,5-difluoro-phenyl)-1-(4-{1-[4-(5-fluoro-1H-indol-3-yl)-piperidin-1-yl]-2-hydroxy-ethyl}-piperidin-1-yl)-propenone]",6,4.5,7,–
"O=C(/C=C/c1ccc(F)c(Br)c1)N1CCC(C(CO)N2CCC(c3c[nH]c4ccc(F)cc34)CC2)CC1 (stereo not drawn) [Cpd 172, (2E)-3-(3-bromo-4-fluoro-phenyl)-1-(4-{1-[4-(5-fluoro-1H-indol-3-yl)-piperidin-1-yl]-2-hydroxy-ethyl}-piperidin-1-yl)-propenone]",30,32,20,–
"O=C(/C=C/c1cc(F)cc(F)c1)N1CCC(C(CO)N2CCC(c3n[nH]c4ccccc34)CC2)CC1 (stereo not drawn) [Cpd 173, (2E)-3-(3,5-difluoro-phenyl)-1-(4-{2-hydroxy-1-[4-(1H-indazol-3-yl)-piperidin-1-yl]-ethyl}-piperidin-1-yl)-propenone]",–,–,–,"IC50 (THP-1 cells [1]): 130 nM; IC50 (CCR2; read-out: Inhibition of MCP-1 Binding IC50, 125I labeled MCP-1 binding to CCR2, THP-1 cells): 430 nM; Inhibition of MCP-1 Induced Calcium Ion Influx, percent inhibition (THP-1 cells [2]; test concentration of 25 μM, IC50 not obtained): 21%"
"O=C(/C=C/c1cc(F)c(F)c(F)c1)N1CCC(C(CO)N2CCC(c3nc4ccccc4[nH]3)CC2)CC1 (stereo not drawn) [Cpd 175, (2E)-1-(4-{1-[4-(1H-benzoimidazol-2-yl)-piperidin-1-yl]-2-hydroxy-ethyl}-piperidin-1-yl)-3-(3,4,5-trifluoro-phenyl)-propenone]",300,188,2300,–
"O=C(/C=C/c1ccc(Cl)c(Cl)c1)N1CCC(C(CO)N2CCC(c3nc4ccccc4[nH]3)CC2)CC1 (stereo not drawn) [Cpd 176, (2E)-1-(4-{1-[4-(1H-benzoimidazol-2-yl)-piperidin-1-yl]-2-hydroxy-ethyl}-piperidin-1-yl)-3-(3,4-dichloro-phenyl)-propenone]",90,70,2610,–
"Nc1ccc2[nH]cc(C3CCN(C(C(=O)O)C4CCN(C(=O)/C=C/c5cc(F)c(F)c(F)c5)CC4)CC3)c2n1 (stereo not drawn) [Cpd 178, [4-(5-amino-1H-pyrrolo[3,2-b]pyridin-3-yl)-piperidin-1-yl]-{1-[(2E)-3-(3,4,5-trifluoro-phenyl)-acryloyl]-piperidin-4-yl}-acetic acid]",180,90,2350,–
